This note sets out measurements from patent publication US11377441B2, “Covalent inhibitors of KRAS” (Araxes Pharma LLC, priority 2017, dated 2022).

The target in this assay is T1, KRAS G12C 1-169, his-tagged protein, GDP-loaded (Homo sapiens, UniProt P01116, G12C).
T1 construct: KRAS G12C 1-169, his-tagged protein, GDP-loaded
The assay can be described thus: Biochemical assay: covalent modification of KRAS G12C measured by mass spectrometry (RapidFire/TOF or Q-Exactive). It counts as binding. Particulars: covalent binding to (modification of) KRAS G12C after a ten minute incubation period. The method, then:
Test compounds were prepared as 10 mM stock solutions in DMSO (Fisher cat #BP-231-100). KRAS G12C 1-169, his-tagged protein, GDP-loaded is diluted to 2 μM or 0.5 μM in buffer (20 mM Hepes, 150 mM NaCl, 1 mM MgCl2). Compounds were tested for activity as follows:
Compounds were diluted to 50× final test concentration in DMSO in 96-well storage plates. Compound stock solutions were vortexed before use and observed carefully for any sign of precipitation. Dilutions are as follow: • For 100 μM final compound concentration, compounds were diluted to 5000 μM (5 μL 10 mM compound stock+5 μL DMSO and mixed well by pipetting. • For 30 μM final compound concentration, compounds were diluted to 1500 μM (3 μL 10 mM compound stock+17 μL DMSO) and mixed well by pipetting. • For 10 μM final compound concentration, compounds were diluted to 500 μM (2 μL 10 mM compound stock+38 μL DMSO) and mixed well by pipetting. 49 μL of the stock protein solution was added to each well of a 96-well PCR plate (Fisher cat #1423027). 1 μL of the diluted 50× compounds were added to appropriate wells in the PCR plate using 12-channel pipettor. Reactions were mixed carefully and thoroughly by pipetting up/down with a 200 μL multi-channel pipettor. The plate was sealed well with aluminum plate seal, and stored in drawer at room temperature for 10 minutes, 30 minutes, 2 hours or 24 hours. 5 μL of 2% formic acid (Fisher cat #A117) in de-ionized H2O was then added to each well followed by mixing with a pipette. The plate was then resealed with aluminum seal and stored on dry ice until analyzed as described below.
The above described assays were analyzed by mass spectrometry according to one of the following two procedures:
The MS instrument was set to positive polarity, 2 GHz resolution, and low mass (1700) mode and allowed to equilibrate for 30 minutes. The instrument was then calibrated, switched to acquisition mode and the appropriate method loaded.
After another 30 minute equilibration time, a blank batch (i.e., buffer) was run to ensure equipment is operating properly. The samples were thawed at 37° C. for 10 minutes, briefly centrifuged, and transfer to the bench top. Wells A1 and H12 were spiked with 1 μL 500 μM internal standard peptide, and the plates centrifuged at 2000×g for 5 minutes. The method was then run and masses of each individual well recorded.
The masses (for which integration data is desired) for each well were pasted into the platemap and exported from the analysis. Masses for the internal standards were exported as well. The data at 50 ppm was extracted for the +19 charge state, and identity of well A1 was assigned using the internal standard spike and integrated. Peak data was exported as a TOF list and the above steps were repeated individually, for the +20, 21, 22, 23, 24, and 25 charge states.
The masses and peak intensities of KRAS G12C protein species were measured using a Dionex RSLCnano system (Thermo Scientific) connected to a Q Exactive Plus mass spectrometer (Thermo Scientific).
[…] of sample was each loaded onto a Aeris™ 3.6 μm WIDEPORE C4 200 Å, LC Column 50×2.1 mm column maintained at 40° C. at a flow rate of 600 μL/min with 20% Solvent A (0.1% formic acid in H2O) and […] (0.1% formic acid in acetonitrile). The liquid chromatography conditions were 20% solvent B for 1 minute, 20% to 60% solvent B for 1.5 minutes, 60% to 90% solvent for 0.5 minute, 90% solvent B for 0.2 minute, 90% to 20% solvent B for 0.2 minute, and then equilibrated for 1.6 minutes before the following sample injection. The flow rate was maintained at 600 μL/min throughout the sample analysis.
The mass spectrometer was operated in profile mode at a resolution of 17500, 5 microscans, using 50 msec max injection time and an AGC target of 1×10^6, and a full mass range from 800-1850 m/z was recorded. The HCD trapping gas was optimized for maximum sensitivity for intact proteins. […]

For the molecule `C=CC(=O)N1C[C@H](C)N(c2nc(N3CC(N(C)C)C3)nc3c(F)c(-c4c(C)ccc5nn(C)cc45)c(Cl)cc23)C[C@H]1C` (atropisomer, axis not shown) [Compound 88, 1-((2R,5S)-4-((R)-6-chloro-7-(2,5-dimethyl-2H-indazol-4-yl)-2-(3-(dimethylamino)azetidin-1-yl)-8-fluoroquinazolin-4-yl)-2,5-dimethylpiperazin-1-yl)prop-2-en-1-one], the Binding % result is “++ (++ indicates binding activity from 50 to 80%)”.

With `C=CC(=O)N1C[C@H](C)N(c2nc(N3CC(N(C)C)C3)nc3c(F)c(-c4c(C)ccc5[nH]nc(N)c45)c(Cl)cc23)C[C@H]1C` (atropisomer, axis not shown) [Compound 89, 1-((2R,5S)-4-((R)-7-(3-amino-5-methyl-1H-indazol-4-yl)-6-chloro-2-(3-(dimethylamino)azetidin-1-yl)-8-fluoroquinazolin-4-yl)-2,5-dimethylpiperazin-1-yl)prop-2-en-1-one], the Binding % result is reported as “+++ (+++ indicates binding activity greater than 80%)”.

For `C=CC(=O)N1C[C@H](C)N(c2nc(N3CC(N(C)C)C3)nc3c(F)c(-c4c(C)ccc5[nH]nc(N)c45)c(Cl)cc23)C[C@H]1C` (atropisomer, axis not shown) [Compound 90, 1-((2R,5S)-4-((S)-7-(3-amino-5-methyl-1H-indazol-4-yl)-6-chloro-2-(3-(dimethylamino)azetidin-1-yl)-8-fluoroquinazolin-4-yl)-2,5-dimethylpiperazin-1-yl)prop-2-en-1-one], the Binding % entry was “+ (+ indicates binding activity greater than 0% and up to 50%)”.

For `C=CC(=O)N1C[C@H](C)N(c2nc(N3CC(N(C)C)C3)nc3c(F)c(-c4c(C)ccc5onc(N)c45)c(Cl)cc23)C[C@H]1C` (atropisomer, axis not shown) [Compound 96, 1-((2R,5S)-4-((S)-7-(3-amino-5-methylbenzo[d]isoxazol-4-yl)-6-chloro-2-(3-(dimethylamino)azetidin-1-yl)-8-fluoroquinazolin-4-yl)-2,5-dimethylpiperazin-1-yl)prop-2-en-1-one], the Binding % result was “+ (+ indicates binding activity greater than 0% and up to 50%)”.

Turning to `C=CC(=O)N1C[C@H](C)N(c2nc(N3CC(N(C)C)C3)nc3c(F)c(-c4c(C)ccc5[nH]nc(C)c45)c(Cl)cc23)C[C@H]1C` (atropisomer, axis not shown) [Compound 97, 1-((2R,5S)-4-((S)-6-chloro-7-(3,5-dimethyl-1H-indazol-4-yl)-2-(3-(dimethylamino)azetidin-1-yl)-8-fluoroquinazolin-4-yl)-2,5-dimethylpiperazin-1-yl)prop-2-en-1-one], the Binding % entry is “+ (+ indicates binding activity greater than 0% and up to 50%)”.

Take `C=CC(=O)N1C[C@H](C)N(c2nc(N3CC(N(C)C)C3)nc3c(F)c(-c4c(C)ccc5[nH]nc(C)c45)c(Cl)cc23)C[C@H]1C` (atropisomer, axis not shown) [Compound 98, 1-((2R,5S)-4-((R)-6-chloro-7-(3,5-dimethyl-1H-indazol-4-yl)-2-(3-(dimethylamino)azetidin-1-yl)-8-fluoroquinazolin-4-yl)-2,5-dimethylpiperazin-1-yl)prop-2-en-1-one]: the Binding % entry was “+++ (+++ indicates binding activity greater than 80%)”.

Take `C=CC(=O)N1CCN(c2nc(N3CC(N(C)C)C3)nc3c(F)c(-c4c(C)ccc5[nH]nc(C6CC6)c45)c(Cl)cc23)C[C@H]1C` (atropisomer, axis not shown) [Compound 101, 1-((R)-4-((S)-6-chloro-7-(3-cyclopropyl-5-methyl-1H-indazol-4-yl)-2-(3-(dimethylamino)azetidin-1-yl)-8-fluoroquinazolin-4-yl)-2-methylpiperazin-1-yl)prop-2-en-1-one]: the Binding % entry is “+ (+ indicates binding activity greater than 0% and up to 50%)”.

On to `C=CC(=O)N1CCN(c2nc(N3CC(N(C)C)C3)nc3c(F)c(-c4c(C)ccc5[nH]nc(C6CC6)c45)c(Cl)cc23)C[C@H]1C` (atropisomer, axis not shown) [Compound 102, 1-((R)-4-((R)-6-chloro-7-(3-cyclopropyl-5-methyl-1H-indazol-4-yl)-2-(3-(dimethylamino)azetidin-1-yl)-8-fluoroquinazolin-4-yl)-2-methylpiperazin-1-yl)prop-2-en-1-one], for which the Binding % result is listed as “+++ (+++ indicates binding activity greater than 80%)”.

Regarding `C=CC(=O)N1CCN(c2nc(N3CC(N(C)C)C3)nc3c(F)c(-c4c(C)ccc5[nH]nc(C6CC6)c45)c(Cl)cc23)CC1` (atropisomer, axis not shown) [Compound 103, (S)-1-(4-(6-chloro-7-(3-cyclopropyl-5-methyl-1H-indazol-4-yl)-2-(3-(dimethylamino)azetidin-1-yl)-8-fluoroquinazolin-4-yl)piperazin-1-yl)prop-2-en-1-one], the Binding % result was “+ (+ indicates binding activity greater than 0% and up to 50%)”.

As for `C=CC(=O)N1CCN(c2nc(N3CC(N(C)C)C3)nc3c(F)c(-c4c(C)ccc5[nH]nc(C6CC6)c45)c(Cl)cc23)CC1` (atropisomer, axis not shown) [Compound 104, (R)-1-(4-(6-chloro-7-(3-cyclopropyl-5-methyl-1H-indazol-4-yl)-2-(3-(dimethylamino)azetidin-1-yl)-8-fluoroquinazolin-4-yl)piperazin-1-yl)prop-2-en-1-one], the Binding % result is on record as “+++ (+++ indicates binding activity greater than 80%)”.

Turning to `C=CC(=O)N1C[C@H](C)N(c2nc(N3CC(N(C)C)C3)nc3c(F)c(-c4c(C)ccc5cn(C)nc45)c(Cl)cc23)C[C@H]1C` (atropisomer, axis not shown) [Compound 105, 1-((2R,5S)-4-((R)-6-chloro-7-(2,6-dimethyl-2H-indazol-7-yl)-2-(3-(dimethylamino)azetidin-1-yl)-8-fluoroquinazolin-4-yl)-2,5-dimethylpiperazin-1-yl)prop-2-en-1-one], the Binding % entry is reported as “++ (++ indicates binding activity from 50 to 80%)”.

Turning to `C=CC(=O)N1C[C@H](C)N(c2nc(NC3CCN(C4CC4)CC3)nc3c(F)c(-c4c(C)ccc5[nH]nc(C6CC6)c45)c(Cl)cc23)C[C@H]1C` (atropisomer, axis not shown) [Compound 110, 1-((2R,5S)-4-((S)-6-chloro-7-(3-cyclopropyl-5-methyl-1H-indazol-4-yl)-2-(1-cyclopropylpiperidin-4-ylamino)-8-fluoroquinazolin-4-yl)-2,5-dimethylpiperazin-1-yl)prop-2-en-1-one], the Binding % entry was “+ (+ indicates binding activity greater than 0% and up to 50%)”.

On to `C=CC(=O)N1C[C@H](C)N(c2nc(NC3CCN(C4CC4)CC3)nc3c(F)c(-c4c(C)ccc5[nH]nc(C6CC6)c45)c(Cl)cc23)C[C@H]1C` (atropisomer, axis not shown) [Compound 111, 1-((2R,5S)-4-((R)-6-chloro-7-(3-cyclopropyl-5-methyl-1H-indazol-4-yl)-2-(1-cyclopropylpiperidin-4-ylamino)-8-fluoroquinazolin-4-yl)-2,5-dimethylpiperazin-1-yl)prop-2-en-1-one], for which the Binding % entry was “++ (++ indicates binding activity from 50 to 80%)”.

For the molecule `C=CC(=O)N1C[C@H](C)N(c2nc(OCCN3CCOCC3)nc3c(F)c(-c4c(C)ccc5[nH]nc(C6CC6)c45)c(Cl)cc23)C[C@H]1C` (atropisomer, axis not shown) [Compound 112, 1-((2R,5S)-4-((S)-6-chloro-7-(3-cyclopropyl-5-methyl-1H-indazol-4-yl)-8-fluoro-2-(2-morpholinoethoxy)quina-zolin-4-yl)-2,5-dimethylpiperazin-1-yl)prop-2-en-1-one], the Binding % entry was “+ (+ indicates binding activity greater than 0% and up to 50%)”.
